Measurements from paper PMC9740559, “Molecular and Pharmacological Characterization of β-Adrenergic-like Octopamine Receptors in the Endoparasitoid Cotesia chilonis (Hymenoptera: Braconidae)” (International Journal of Molecular Sciences, 2022).

Tests used:
CcOctβ2R [1] = tested on: T1, CcOctβ2R; assay: cAMP production in stable CHO-K1 cells (cAMP immunoassay); format: cell-based, Cotesia chilonis; conditions: agonist; 100 μM IBMX; 25 °C
T1 construct: gene Octβ2R; full-length ORF, 435 residues; pcDNA3.0 vector with hemagglutinin A tag
From the text: cAMP production in stable CHO-K1 cells (cAMP immunoassay) on CcOctβ2R

CcOctβ1R [2] = tested on: T2, CcOctβ1R; assay: as above; format: cell-based, Cotesia chilonis; conditions: agonist; 100 μM IBMX; 25 °C
T2 construct: gene Octβ1R; full-length ORF, 417 residues; pcDNA3.0 vector with hemagglutinin A tag
From the text: cAMP production in stable CHO-K1 cells (cAMP immunoassay) on CcOctβ1R

CcOctβ3R [3] = tested on: T3, CcOctβ3R; assay: as above; format: cell-based, Cotesia chilonis; conditions: agonist; 100 μM IBMX; 25 °C
T3 construct: gene Octβ3R; full-length ORF, 358 residues; pcDNA3.0 vector with hemagglutinin A tag
From the text: cAMP production in stable CHO-K1 cells (cAMP immunoassay) on CcOctβ3R

CcOctβ1R [4] = tested on: T4, CcOctβ1R; conditions: read-out: CcOctβ1R / IC50; antagonist; non-saturating OA (100 nM); 100 μM IBMX; 25 °C
T4 construct: gene Octβ1R
From the text: inhibition of OA-induced cAMP in stable CHO-K1 cells (cAMP immunoassay) on CcOctβ1R

CcOctβ2R [5] = tested on: T5, CcOctβ2R; conditions: read-out: CcOctβ2R / IC50; antagonist; non-saturating OA (30 nM); 100 μM IBMX; 25 °C
T5 construct: gene Octβ2R
From the text: inhibition of OA-induced cAMP in stable CHO-K1 cells (cAMP immunoassay) on CcOctβ2R

CcOctβ3R [6] = tested on: T6, CcOctβ3R; conditions: read-out: CcOctβ3R / IC50; antagonist; non-saturating OA (300 nM); 100 μM IBMX; 25 °C
T6 construct: gene Octβ3R
From the text: inhibition of OA-induced cAMP in stable CHO-K1 cells (cAMP immunoassay) on CcOctβ3R

| SMILES | EC50 (CcOctβ2R [1]) [nM] | EC50 (CcOctβ1R [2]) [nM] | EC50 (CcOctβ3R [3]) [nM] | IC50 (CcOctβ1R [4]) [nM] | IC50 (CcOctβ2R [5]) [nM] | IC50 (CcOctβ3R [6]) [nM] |
| --- | --- | --- | --- | --- | --- | --- |
| Cc1ccc(/N=C/N(C)/C=N/c2ccc(C)cc2C)c(C)c1 [Amitraz] | 3.27 | 16.5 | – | – | – | – |
| CN=CNc1ccc(C)cc1C [DPMF, N^2-(2,4-dimethylphenyl)-N^1-methyformamidine] | 2.37 | 9.25 | 4.35 | – | – | – |
| NC1=NCC2c3ccccc3Cc3ccccc3N12 (centres unmarked) [Epinastine] | – | – | – | 37.6 | 14.4 | 7.34 |
| c1ccc2c(CC3=NCCN3)cccc2c1 [Naphazoline] | 0.0157 | 0.231 | 5.06 | – | – | – |
| NC[C@H](O)c1ccc(O)cc1 [OA] | 6.69 | 39 | 33.6 | – | – | – |
